# Source: patent publication US20050277664A1, “Monoamine neurotransmitter re-uptake inhibitor for the inhibition of beta-amyloid generation” (Boehringer Ingelheim International GmbH, priority 2004, published 2005)
# Read-outs that look alike come from different tables or passages of the source.
# Experiments:
# [1] = tested on: Aβ42 secretion by U373 astrocytoma cells expressing human wtAPP695; test: Aβ secretion assay, Aβ42 (sandwich ELISA of cell supernatant); format: cell-based; conditions: for inhibition at 1.56 µM / inhibition at 3.12 µM / inhibition at 6.25 µM / inhibition at 12.5 µM / inhibition at 25 µM / inhibition at 50 µM: Homo sapiens, U373 MG, 17 h, read-out: Aβ42 Secretion, inhibition (−) or stimulation (+); for generation/secretion of Aβ42 (result in words): dose response
# Protocol: (§1) Cell culture and drug treatment: U373 astrocytoma cells expressing human wtAPP695 were used to test the compound of formula IA for Aβ lowering potential. Cells were cultured in 96 well plates in DMEM medium, additionally supplemented with 10% FCS and 1% glutamine, until they have grown to a confluent cell layer. The cells were then incubated for 17 hours in the presence of the compound of formula IA in DMEM medium. Afterwards, 100 μl of the supernatant had been removed and measured with the ELISA as described below to determine the Aβ42 peptide concentrations. The cells were washed, incubated again for 4 hours with the compound, before measuring the Aβ40 levels. AlamarBlue assays (Serotec, Oxford, UK) were conducted to determine cytotoxicity.
# (§2) Monoclonal 6E10 against Aβ1-17 (Signet Laboratories, Inc., Dedham, Mass., USA) was used to capture Aβ40; SGY 3160 against Aβ1-16 (Mayo Medical Ventures, Rochester, Minn., USA) to capture Aβ42. Both antibodies were diluted in PBS at a concentration of 8 μg/ml to coat a 96 well plate. Blocking was completed with 1% Block ACE (blocking reagent) (Dainippon Seiyaku, Asaka, Japan) in PBS for 2 hrs. The plates were then washed with PBST and the cell supernatants, diluted 1:1.5 in EC buffer (0.1 M NaH2PO4, 0.1 M Na2HPO4, 2 mM EDTA, 0.4 M NaCl, 0.2% BSA, 0.05% CHAPS, 0.4% Block ACE, 0.05% NaN3 pH 7.0) have been added into the wells, before the plates were stored at 4° C. over night. Detector antibodies (alkaline phosphatase-coupled ROβ40 and ROβ42 against Aβ40 and Aβ42, respectively), were loaded onto the wells at 0.1 μg/ml in ACE Block for 2 hrs. The reporter system used was the Tropix ELISA-Light chemiluminescent detection system (Applied Biosystems (Tropix), Bedford, Mass., USA).
# (§3) The compound of formula IA has been tested in an Aβ secretion assay. In this particular in vitro assay, the astrocytoma cell line U373 that stably over-expresses wild-type human amyloid precursor protein (APP) has been exposed to this compound. APP is proteolytically cleaved by 2 enzymes, BACE and γ secretase, to generate the Aβ peptides. Because of a flexible APP cleavage site of γ secretase, several Aβ isoforms are generated, majorly Aβ40 and Aβ42. The rate of Aβ generation/secretion into the medium in the presence or absence of the compound of formula IA in different concentrations has been measured by ELISA (Table 1). The % inhibition (−) or stimulation (+) has been determined in 2 independent experiments.
# [2] = tested on: Aβ40 secretion by U373 astrocytoma cells expressing human wtAPP695; test: Aβ secretion assay, Aβ40 (sandwich ELISA of cell supernatant); format: cell-based; conditions: for inhibition at 1.56 µM / inhibition at 3.12 µM / inhibition at 6.25 µM / inhibition at 12.5 µM / inhibition at 25 µM / inhibition at 50 µM: Homo sapiens, U373 MG, 4 h, read-out: Aβ40 Secretion, inhibition (−) or stimulation (+); for generation/secretion of Aβ40 (result in words): dose response
# Protocol: as §1, §2, §3
# [3] = tested on: cerebral Aβ40 levels in APPtg mice; test: Cerebral Aβ40 levels in APPtg mice after oral treatment; format: in vivo; conditions: for Level of Aβ40, reduction (−) and/or stimulation (+) of cerebral Aβ levels: per os
# Protocol: (§4) APPtg mice at 3 to 4 months of age were used. A compound of formula (IA) was prepared and administered in a suspension of 0.5% Tylose solution.
# (§5) Controls were treated with Tylose only. Each group consisted of 12 or 13 mice with equal numbers of each sex. In the short term study, the animals were treated for the time period of 2.5 days. Twice a day, a dose of 3 mg/kg was applied with interruption times of 11.5-12.5 hours. On the last day (day of sacrifice), one dose of 3 mg/kg was administered and the mice were sacrificed 5.5 hours later. […] In a second long term four weeks study, 3 mg/kg/day of compound of formula IA were administered, subdivided into two subdoses, with an interruption time of 10-12 hours during the day. Each version of the in vivo experiments has been performed once.
# (§6) The murine brains were rapidly removed from the skull and divided along the medial fissure. The cerebellum was removed before each half was quickly frozen down on a metal plate that had been cooled down on dry ice. Brains were placed in Eppendorf tubes, frozen in liquid nitrogen, and stored at −80° C. until needed for Aβ extractions or compound measurements.
# (§7) Brains were thawed on ice. Mouse hemibrains were extracted in a homogenisation buffer consisting of 20 mM Tris (pH 8.5), 0.2% Triton X-100, and complete proteinase inhibitor with EDTA (Roche Diagnostics GmbH, Mannheim, Germany). The brains were homogenized in a volume […] 5 times the weight of the brain (mg) using a 2 ml Douncer Homogenator (B. Braun, Melsungen, Germany). This was carried out 12 times with a Stempel L, followed by a Stempel S. The homogenates were then ultracentrifuged in Ultracentrifuge tubes (Beckman, CA, USA) at 200.000 g (UZ Sorvall RC 120 GX, KENDRO Laboratories Products GmbH, Hanau, Germany) at 4° C. for 1 hour. The post nuclear supernatants containing the soluble Aβ were collected and measured in a Sandwich ELISA (s.a.).
# (§8) Statistical analyses of data was done by one-sided t tests for differences between treatment and control group to determine the p values.
# [4] = tested on: cerebral Aβ42 levels in APPtg mice; test: Cerebral Aβ42 levels in APPtg mice after oral treatment; format: in vivo; conditions: for Level of Aβ42, reduction (−) and/or stimulation (+) of cerebral Aβ levels: per os
# Protocol: as §4, §5, §6, §7, §8
# [5] = Exp. 1, further 4 hours incubation
# [6] = Exp. 2, further 4 hours incubation
smiles,measurement,setting,value
CCOC[C@H]1C2CCC(C[C@@H]1c1ccc(Cl)c(Cl)c1)N2C (some centres unmarked) [Formula IA],inhibition at 1.56 µM,"[1]; Exp. 1, 17 hours incubation",3.5%
same,inhibition at 1.56 µM,"[1]; Exp. 2, 17 hours incubation",-4.5%
same,inhibition at 3.12 µM,"[1]; Exp. 1, 17 hours incubation",6.5%
same,inhibition at 3.12 µM,"[1]; Exp. 2, 17 hours incubation",-16.1%
same,inhibition at 6.25 µM,"[1]; Exp. 1, 17 hours incubation",4.1%
same,inhibition at 6.25 µM,"[1]; Exp. 2, 17 hours incubation",12.1%
same,inhibition at 12.5 µM,"[1]; Exp. 1, 17 hours incubation",17.8%
same,inhibition at 12.5 µM,"[1]; Exp. 2, 17 hours incubation",23.2%
same,inhibition at 25 µM,"[1]; Exp. 1, 17 hours incubation",24.5%
same,inhibition at 25 µM,"[1]; Exp. 2, 17 hours incubation",48.9%
same,inhibition at 50 µM,"[1]; Exp. 1, 17 hours incubation",26.6%
same,inhibition at 50 µM,"[1]; Exp. 2, 17 hours incubation",62.3%
same,generation/secretion of Aβ42 (result in words),[1]; FIG. 2,increasing inhibition of Aβ42 with an increasing concentration
same,generation/secretion of Aβ42 (result in words),"[1]; FIG. 2, listed as formula 1A",inhibited
same,inhibition at 1.56 µM,[2]; [5],3.2%
same,inhibition at 1.56 µM,[2]; [6],-16%
same,inhibition at 3.12 µM,[2]; [5],6.1%
same,inhibition at 3.12 µM,[2]; [6],-8%
same,inhibition at 6.25 µM,[2]; [5],20.9%
same,inhibition at 6.25 µM,[2]; [6],2.8%
same,inhibition at 12.5 µM,[2]; [5],33.9%
same,inhibition at 12.5 µM,[2]; [6],24.8%
same,inhibition at 25 µM,[2]; [5],50.1%
same,inhibition at 25 µM,[2]; [6],50.3%
same,inhibition at 50 µM,[2]; [5],81.3%
same,inhibition at 50 µM,[2]; [6],88.5%
same,generation/secretion of Aβ40 (result in words),[2]; FIG. 1,increasing inhibition of Aβ40 with an increasing concentration
same,generation/secretion of Aβ40 (result in words),"[2]; FIG. 1, listed as formula 1A",inhibited
same,"Level of Aβ40, reduction (−) and/or stimulation (+) of cerebral Aβ levels","[3]; APPtg mice, 2 weeks, 1 × 3.0 mg/kg/day, mean ± SEM",−18.6 ± 7.1 %
same,"Level of Aβ40, reduction (−) and/or stimulation (+) of cerebral Aβ levels","[3]; APPtg mice, 4 weeks, 2 × 1.5 mg/kg/day, mean ± two-sided confidence interval",−17.2 ± 8.7° %
same,"Level of Aβ40, reduction (−) and/or stimulation (+) of cerebral Aβ levels","[3]; APPtg mice, 2.5 days, 2 × 3.0 mg/kg day 1, 2, 1 × 3.0 mg/kg day 3, mean ± SEM vs Tylose control",−12.4 ± 1.9 %
same,reduction of Aβ40,"[3]; four weeks study, 3 mg/kg/day in two subdoses, APPtg mice",17.2%
same,Aβ40 levels in vivo (result in words),"[3]; in vivo test, FIG. 3 (short term experiment)",statistically significant reduction
same,reduction of the Aβ40 levels,"[3]; short term in vivo experiment (2.5 days, 3 mg/kg twice a day), APPtg mice, p=0.0003",12.4%
same,reduction of the cerebral Aβ40 levels,"[3]; two weeks treatment, 3 mg/kg once a day, APPtg mice, p=0.024",18.6%
same,reduction for Aβ42,"[4]; four weeks study, 3 mg/kg/day in two subdoses",27.4%
same,"Level of Aβ42, reduction (−) and/or stimulation (+) of cerebral Aβ levels","[4]; 2 weeks, 1 × 3.0 mg/kg/day, mean ± SEM",−16.3 ± 3.7 %
same,"Level of Aβ42, reduction (−) and/or stimulation (+) of cerebral Aβ levels","[4]; 4 weeks, 2 × 1.5 mg/kg/day, mean ± two-sided confidence interval",−27.4 ± 27.2° %
same,"Level of Aβ42, reduction (−) and/or stimulation (+) of cerebral Aβ levels","[4]; 2.5 days, 2 × 3.0 mg/kg day 1, 2, 1 × 3.0 mg/kg day 3, mean ± SEM vs Tylose control",+5.1 ± 3.0%
same,increase of Aβ42 levels,"[4]; short term in vivo experiment (2.5 days, 3 mg/kg twice a day), p=0.9136",5.1%
same,reduction of the cerebral Aβ42 levels,"[4]; two weeks treatment, 3 mg/kg once a day, p=0.0096",16.3%
